Values quoted from earlier work as cited in article PMC7285658 (Chemical communications (Cambridge, England), 2020).
pKi: −log10 of the molar value.

Target: RSK1/2
Conditions: selective inhibitor of RSK1/2

CC(=O)O[C@@H]1[C@@H](OC(C)=O)[C@@H](O)[C@H](Oc2c(-c3ccc(O)cc3)oc3cc(O)cc(O)c3c2=O)O[C@H]1C [SL0101]
pKi: ~6.00
